Results published in US11236085B2, “PD-1/PD-L1 inhibitors” (Gilead Sciences, Inc., priority 2018, dated 2022).

What was measured:
PD-1/PD-L1 [1] = molecular target: T1, PD-1/PD-L1 (Homo sapiens, UniProt Q9NZQ7); experiment: PD-1/PD-L1 biochemical protein-protein interaction assay (ALPHA); assay type: binding; conditions: 0.3 nM His tagged PD-L1, 2.5 nM biotinylated Fc-PD-1; 60 minutes at 25° C.; read-out: IC50 PD-L1-PD1
Procedure: PD-1/PD-L1 & CTLA/CD80 Biochemical Protein-Protein Interaction Assay
Compounds were tested in biochemical protein-protein interaction assays to determine if they can specifically block the interaction between the extracellular domains of PD-1/PD-L1 or CTLA/CD80. Binding of the protein pairs is measured using a bead based Amplified Luminescent Proximity Homogeneous Assay (ALPHA) platform. Binding of each protein pair results in proximity of the donor and acceptor beads which leads to an increase in ALPHA signal. Disruption of the protein-protein interaction with a test compound results in a decrease in ALPHA signal. Assays are performed in 25 mM Hepes (pH 7.4), 150 mM NaCl, 3.4 mM EDTA, 0.005% Tween 20, and 0.01% BSA. Final protein concentration in the assays were 0.3 nM (His tagged PD-L1), 2.5 nM (biotinylated Fc-PD-1), 1 nM (His tagged CTLA4) and 1 nM (biotinylated CD80). After an assay reaction time of 60 minutes at 25° C., binding was measured with addition of 20 μg/mL ALPHA assay acceptor beads (anti-His coated) and 20 µg/mL ALPHA assay donor beads (streptavidin coated). IC50 values were calculated from the fit of the dose-response curves to a four-parameter equation. Representative data are shown below in Table 3.
Target sequence in this assay (Q9NZQ7 19-238 limits assumed): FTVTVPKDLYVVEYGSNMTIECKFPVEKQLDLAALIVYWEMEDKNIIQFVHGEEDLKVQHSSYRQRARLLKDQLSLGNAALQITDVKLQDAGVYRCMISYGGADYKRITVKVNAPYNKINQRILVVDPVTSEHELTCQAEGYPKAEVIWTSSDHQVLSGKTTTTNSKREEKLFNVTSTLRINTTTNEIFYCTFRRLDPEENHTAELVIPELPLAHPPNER

PD-L1 = molecular target: T2, PD-L1 (Homo sapiens, UniProt Q9NZQ7); experiment: PD-L1/PD-L1 dimerization biochemical protein-protein interaction assay (ALPHA); conditions: 0.5 nM His tagged PD-L1 and 0.5 nM FLAG tagged PD-L1; compound induced dimerization; read-out: AC50 PDL1 Dimer 1 nM
T2 construct: determine if they can specifically dimerize the extracellular domains of PD-L1
T2 sequence (Q9NZQ7 19-238 limits assumed): as above
T2 sequence (Q9NZQ7 19-238 limits assumed): as above
Procedure: PD-L1/PD-L1 Dimerization Biochemical Protein-Protein Interaction Assay
Compounds were tested in biochemical protein-protein interaction assays to determine if they can specifically dimerize the extracellular domains of PD-L1. Dimerization of the proteins (His-tagged PD-L1 and FLAG-tagged PD-L1) is measured using a bead based Amplified Luminescent Proximity Homogeneous Assay (ALPHA) platform. […] Assays are performed in 25 mM Hepes (pH 7.4), 150 mM NaCl, 3.4 mM EDTA, 0.005% Tween 20, and 0.01% BSA. Final protein concentration in the assays were 0.5 nM (His tagged PD-L1) and 0.5 nM (FLAG tagged PD-L1). After an assay reaction time of 2 hours at 25° C., 20 μg/mL (final assay concentration) ALPHA assay acceptor beads (anti-His coated) were added and incubated for 60 minutes at 25° C. Binding was measured following a final 60 minute incubation with 40 μg/mL (final assay concentration) ALPHA assay donor beads (anti-FLAG coated). AC50 values were calculated from the fit of the dose-response curves to a four-parameter equation (Table 4).

PD-1/PD-L1 [2] = molecular target: T1, PD-1/PD-L1; experiment: PD-1/PD-L1 NFAT reporter assay (co-culture of aAPC-PD-L1 CHO cells and Jurkat cells overexpressing PD-1, NFAT luciferase); assay type: cell-based; parameters: expressed in transfected cells; host or cells: CHO cells (aAPC-PD-L1) co-cultured with Jurkat cells overexpressing PD-1; conditions: co-culture incubated for 6 hrs at 37° C.; luciferase under NFAT control
Procedure: PD-1/PD-L1 NFAT Reporter Assay
Compounds were tested in a functional co-culture reporter assay in which TCR-mediated NFAT activity is inhibited by the engagement of PD-1 with PD-L1. […] CHO cells expressing surface-bound anti-CD3 antibodies and PD-L1 (artificial antigen presenting cells, aAPC-PD-L1) were first seeded overnight. Jurkat cells overexpressing PD-1 and expressing a luciferase construct under NFAT control are diluted in RPMI assay medium (RPMI 1640 with 2% FBS), mixed with compounds, and immediately seeded on the monolayer of aAPC-PD-L1. The co-culture is then incubated for 6 hrs at 37° C. Luciferase activity is assessed by adding the ONE-Glo reagent and measuring luminescence with a plate reader. EC50 values are calculated from the fit of the dose-response curves to a four-parameter equation (Table 4).
Target sequence in this assay (Q9NZQ7 19-290): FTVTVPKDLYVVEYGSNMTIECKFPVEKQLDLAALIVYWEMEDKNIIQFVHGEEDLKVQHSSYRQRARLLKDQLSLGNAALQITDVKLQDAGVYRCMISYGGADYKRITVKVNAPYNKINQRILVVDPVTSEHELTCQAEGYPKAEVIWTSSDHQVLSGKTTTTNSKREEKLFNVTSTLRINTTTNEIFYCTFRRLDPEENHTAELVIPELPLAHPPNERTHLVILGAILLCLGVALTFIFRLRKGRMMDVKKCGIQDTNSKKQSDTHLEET

Structure (SMILES)	IC50 (PD-1/PD-L1 [1])	AC50 (PD-L1)	EC50 (PD-1/PD-L1 [2])
COc1nc(O[C@H]2CCc3c(-c4cccc(-c5ccc6c(n5)CCNC6)c4Cl)cccc32)c(C(F)(F)F)cc1CN1CC[C@@H](C(=O)O)C1 [Compound 1, (R)-1-((6-(((S)-4-(2-chloro-3-(5,6,7,8-tetrahydro-1,6-naphthyridin-2-yl)phenyl)-2,3-dihydro-1H-inden-1-yl)oxy)-2-methoxy-5-(trifluoromethyl)pyridin-3-yl)methyl)pyrrolidine-3-carboxylic acid]	0.064 nM	135 nM	1260 nM
COc1nc(O[C@H]2CCc3c(-c4cccc(-c5nc6c(s5)CCNC6)c4Cl)cccc32)c(C(F)(F)F)cc1CN1CC[C@@H](C(=O)O)C1 [Compound 2, (R)-1-((6-(((S)-4-(2-chloro-3-(4,5,6,7-tetrahydrothiazolo[4,5-c]pyridin-2-yl)phenyl)-2,3-dihydro-1H-inden-1-yl)oxy)-2-methoxy-5-(trifluoromethyl)pyridin-3-yl)methyl)pyrrolidine-3-carboxylic acid]	0.064 nM	23 nM	3250 nM
Cc1c(COc2cc(OCc3cncc(C#N)c3)c(CN[C@@](C)(CO)C(=O)O)cc2Cl)cccc1-c1cccc(-c2ccc3c(c2)CNCC3O)c1C (stereo partly drawn) [Compound 3]	0.064 nM	76.9 nM	123 nM
Cc1c(COc2cc(OCc3cncc(C#N)c3)c(CN[C@@](C)(CO)C(=O)O)cc2Cl)cccc1-c1cccc(-c2ccc3c(c2)NCCNC3)c1C [Compound 4]	0.064 nM	86.5 nM	90 nM
Cc1c(COc2cc(OCc3cncc(C#N)c3)c(CN[C@@](C)(CO)C(=O)O)cc2Cl)cccc1-c1cccc(-c2ccc3c(c2)CNCC3)c1C [Compound 5]	0.136 nM	57 nM	134 nM
COc1nc(-c2cccc(-c3cccc(-c4ccc5c(c4)OCCNC5)c3Cl)c2Cl)ccc1CNC[C@@H](O)CC(=O)O [Compound 6]	0.427 nM	301 nM	170 nM
Cc1c(COc2cc(OCc3cc(Cl)cc(C#N)c3)c(CN[C@@](C)(CO)C(=O)O)cc2Cl)cccc1-c1cccc(-c2ccc3c(c2)CNCC3)c1C [Compound 7]	0.955 nM	75 nM	142 nM
Cc1c(COc2cc(OCc3cc(C#N)cc(C#N)c3)c(CN[C@@](C)(CO)C(=O)O)cc2Cl)cccc1-c1cccc(-c2ccc3c(c2)CNCC3)c1C [Compound 8]	0.293 nM	42.9 nM	90 nM
Cc1c(COc2cc(OCCCC#N)c(CN[C@@](C)(CO)C(=O)O)cc2Cl)cccc1-c1cccc(-c2ccc3c(c2)CNCC3)c1C [Compound 9]	0.126 nM	63.8 nM	173 nM
Cc1c(COc2cc(OCc3cncc(C#N)c3)c(CN[C@@](C)(CO)C(=O)O)cc2Cl)cccc1-c1cccc(-c2ccc3c(c2)NC(=O)CNC3)c1C [Compound 10]	0.187 nM	249 nM	103 nM
Cc1c(COc2cc(OCc3cncc(C#N)c3)c(CNC[C@@H](O)CC(=O)O)cc2Cl)cccc1-c1cccc(-c2ccc3c(c2)NC(=O)CNC3)c1C [Compound 11]	0.686 nM	599 nM	178 nM
CNC(=O)NC1CNCc2cc(-c3cccc(-c4cccc(-c5ccc(CNC[C@@H]6CCC(=O)N6)c(OC)n5)c4Cl)c3Cl)ccc21 (stereo partly drawn) [Compound 12]	0.17 nM	55.3 nM	165 nM
Cc1c(COc2cc(OCc3cncc(C#N)c3)c(CNC[C@@H](O)CC(=O)O)cc2Cl)cccc1-c1cccc(-c2ccc3c(c2)CNCC3NC(=O)NC2CC2)c1C (stereo partly drawn) [Compound 13]	0.147 nM	26.9 nM	90 nM
Cc1c(COc2cc(OCc3cncc(C#N)c3)c(CN[C@@](C)(CO)C(=O)O)cc2Cl)cccc1-c1cccc(-c2ccc3c(c2)CNCC3NC(=O)NC2CC2)c1C (stereo partly drawn) [Compound 14]	0.064 nM	10.7 nM	69 nM
CNC(=O)N[C@@H]1CNCc2cc(-c3cccc(-c4cccc(COc5cc(OCc6cncc(C#N)c6)c(CN[C@@](C)(CO)C(=O)O)cc5Cl)c4C)c3C)ccc21 [Compound 15]	0.064 nM	7.47 nM	59 nM
Cc1c(COc2cc(OCc3cncc(C#N)c3)c(CN[C@@](C)(CO)C(=O)O)cc2Cl)cccc1-c1cccc(-c2ccc3c(c2)CNCC3NC(=O)NCC#N)c1C (stereo partly drawn) [Compound 16]	0.09 nM	30.9 nM	102 nM
Cc1c(COc2cc(OCc3cncc(C#N)c3)c(CNC[C@@H](O)CC(=O)O)cc2Cl)cccc1-c1cccc(-c2ccc3c(c2)CNCC3NC(=O)NCC#N)c1C (stereo partly drawn) [Compound 17]	0.174 nM	31.6 nM	128 nM
Cc1c(COc2cc(OCc3cncc(C#N)c3)c(CN[C@@](C)(CO)C(=O)O)cc2Cl)cccc1-c1cccc(-c2ccc3c(c2)CNCC3N)c1C (stereo partly drawn) [Compound 18]	0.158 nM	54.9 nM	73 nM
CNC(=O)NC1CNCc2cc(-c3cccc(-c4cccc(COc5cc(OCc6cncc(C#N)c6)c(CNC[C@@H](O)CC(=O)O)cc5Cl)c4C)c3C)ccc21 (stereo partly drawn) [Compound 20]	0.064 nM	20.8 nM	95 nM
C[C@](CO)(NCc1cc(Br)c(OCc2cccc(-c3cccc(-c4ccc5c(c4)CNCC5)c3Cl)c2Cl)nc1OCc1cncc(C#N)c1)C(=O)O [Compound 21]	0.23 nM	28.3 nM	166 nM
C[C@@](CO)(NCc1cc(Br)c(OCc2cccc(-c3cccc(-c4ccc5c(c4)CNCC5)c3Cl)c2Cl)nc1OCc1cncc(C#N)c1)C(=O)O [Compound 22]	0.151 nM	37.7 nM	87 nM
COc1nc(-c2cccc(-c3cccc(-c4cc5c(cn4)CNC5)c3Cl)c2Cl)ccc1CNC[C@@H]1CCC(=O)N1 [Compound 23]	0.318 nM	272 nM	202 nM
Cc1c(COc2cc(OCc3cncc(C#N)c3)c(CN[C@@](C)(CO)C(=O)O)cc2Cl)cccc1-c1cccc(-c2ccc3c(c2)C2CCC(C3)N2)c1C (stereo partly drawn) [Compound 24]	0.086 nM	41.3 nM	184 nM
Cc1c(COc2nc(OCc3cncc(C#N)c3)c(CN[C@@](C)(CO)C(=O)O)cc2Cl)cccc1-c1cccc(-c2ccc3c(c2)CNC(COC(=O)NCCO)C3)c1C (stereo partly drawn) [Compound 25]	0.064 nM	53.5 nM	108 nM
CC(=O)NCC1Cc2ccc(-c3cccc(-c4cccc(COc5cc(OCc6cncc(C#N)c6)c(CN[C@@](C)(CO)C(=O)O)cc5Cl)c4C)c3C)cc2CN1 (stereo partly drawn) [Compound 26]	0.064 nM	48.9 nM	174 nM
C[C@](CO)(NCc1cc(Cl)c(OCc2cccc(-c3cccc(-c4ccc5c(c4)CNCC5)c3Cl)c2Cl)nc1OCc1cc(C#N)cc(C#N)c1)C(=O)O [Compound 27]	0.312 nM	30.6 nM	155 nM
C[C@@](CO)(NCc1cc(Cl)c(OCc2cccc(-c3cccc(-c4ccc5c(c4)CNCC5)c3Cl)c2Cl)nc1OCc1cc(C#N)cc(C#N)c1)C(=O)O [Compound 28]	0.367 nM	39.7 nM	161 nM
C[C@](CO)(NCc1cc(Cl)c(OCc2cccc(-c3cccc(-c4ccc5c(c4)CNCC5)c3Cl)c2Cl)nc1OCc1cncc(C#N)c1)C(=O)O [Compound 29]	0.368 nM	31.5 nM	200 nM
COc1nc(-c2cccc(-c3cccc(-c4nc5n(n4)CCNC5)c3Cl)c2Cl)ccc1CNC[C@@H]1CCC(=O)N1 [Compound 30]	0.247 nM	690 nM	148 nM
